Four substances from patent publication US20090247466A1, “NEUROPROTECTIVE INTEGRIN-BINDING PEPTIDE AND ANGIOPOIETIN-1 TREATMENTS” (University of Louisville Research Foundation, priority 2008, published 2009) can be followed below.

Ends that are not written are not given here.

Data set [1] has as its system C57BL/6 mice with spinal cord contusion at T9. Put plainly: White matter sparing at the injury epicenter (eriochrome cyanine myelin staining) after spinal cord contusion. Type of data set: in vivo. As to the method:
These mice were tested for overground locomotion using the Basso Mouse Scale (BMS) before the contusion and on the day of euthanasia.
To label endothelial cells of perfused blood vessels, 4 of the vehicle and 4 of the C16 mice received an intravenous injection of the lectin LEA 20 minutes before euthanasia.
To determine whether […] C16 would be neuroprotective, vehicle (n=8) or 100 μg/day C16 (n=9) was injected over 7 days. These mice were tested using the BMS before the contusion and on the last day.
To determine whether C16 had lasting neuroprotective effects, mice received daily injections with vehicle (n=8) or 100 μg/day C16 (n=9) for 14 days. […] These mice were evaluated every week by BMS and were euthanized after 6 weeks. […]
To detect myelin in white matter tracts, one of every five of the transverse sections at each rostro-caudal 1 mm level were stained with a modified eriochrome cyanine (EC) staining protocol (Rabchevsky et al., 2001, J Neurotrauma 18:513-522). […] The injury epicenter was determined for each mouse by the rostro-caudal level that contained the least amount of spared myelin per transverse section. […]
Sections were examined using a Leica DMIRE2 brightfield and fluorescence microscope and images digitized with an attached Spot RTKE camera (Diagnostics Inc., Sterling Height, Mich.). […] The area of LEA was determined with Scion Image. […]

The test system is the same in data set [2]. The data set is described as follows: Overground locomotor function, Basso Mouse Scale (BMS), after spinal cord contusion. Type of data set: in vivo.
Description: To determine whether C16 had lasting neuroprotective effects, mice received daily injections with vehicle (n=8) or 100 μg/day C16 (n=9) for 14 days. The treatment was started 4 hours after the spinal cord injury consistent with the time it takes to diagnose most injured humans in the developed world. These mice were evaluated every week by BMS and were euthanized after 6 weeks.
Functional recovery from the spinal cord contusion was determined weekly by open-field overground locomotor performance using the Basso Mouse Scale (BMS; Basso et al., 2006, J Neurotrauma 23:635-659), with scores ranging from 0 (complete paralysis) to 9 (normal mobility). Left and right sides are scored separately and averaged for each mouse. Weight bearing is seen at a score of 5 but not at 4. Locomotor function was measured by placing the mouse for 4 min in the center of a circular enclosure (90 cm in diameter, 7 cm wall height) made of molded plastic with a smooth, non-slip floor. Before each evaluation, the mice were examined carefully for perineal infections, wounds in the limbs, or tail and foot autophagia, as they could influence stepping. Such mice were excluded from the BMS test. The mice were tested for baseline values before surgery. The mice in the 7-day experiments were tested on the day of euthanasia and the mice in the 6 week chronic group were tested every week starting on day 8 or 9 after the contusion.
Adult C57B1/6 mice received a contusion injury at the thoracic spine level 9. Starting 4 hours after the injury, the mice received daily intravenous injections of control vehicle, Ang-1 or Ang-1 plus C16 (all at 100 μg/day) for 7 days.
Functional recovery after SCI was determined weekly by open-field overground locomotor performance using the BMS (Basso et al., J Neurotrauma, 23(5), 635-659 (2006)). Before each evaluation, the mice were examined carefully for perineal infections, wounds in the limbs, or tail and foot autophagia, as they could influence stepping. Such mice were excluded from the BMS test. The mice were acclimatized to the testing area for at least 25 minutes, including individually handling for at least 5 minutes, for 3 days and then tested for baseline values before surgery. The mice in the 7-day experiments were tested on the day of euthanasia and the mice in the 6 week chronic group were tested every week starting on day 8 or 9 after the contusion.
Data set [3] shares this test system. The data set is described as follows: Perfused (LEA lectin-labeled) blood vessels in the injury penumbra after spinal cord contusion. The settings on record: single i.v. injection immediately after injury; 24 hours. Format: in vivo.
Description: Normal (n=3) and 7 day sham operated mice (n=5) also received intravenous LEA injections.
To pre-label perfused blood vessels, 100 μg in 100 μl of FITC-conjugated LEA (Lectin from Lycopersicon esculentum; Sigma, St. Louis, Mo.) was injected into the other jugular vein 30 minutes before euthanasia.
Data set [4] shares this test system. The data set is described as follows: Inflammation: CD45 and CD68 immunostained area after spinal cord contusion. Type of data set: in vivo. As to the method: Adjacent sections at each mm level were processed for double- or triple immunofluorescent staining to detect CD45 (leukocytes), CD68 (activated microglia/macrophages), PECAM1 (endothelial cells), αv, β3 or α5β1 integrin, or in some cases laminin (to define the so-called heterodomain or area of tissue loss). Slides were warmed for 20 minutes on a slide warmer, a ring of wax applied around the sections with a PAP pen (Invitrogen™, Carlsbad, Calif.) and the slides rinsed in 0.1 M Tris-buffered saline (TBS) for 10 min. […] To measure the volume of tissue loss as determined by laminin staining in the horizontal sections, the sections were processed using an ABC-DAB staining protocol.
Sections were examined using a Leica DMIRE2 brightfield and fluorescence microscope and images digitized with an attached Spot RTKE camera (Diagnostics Inc., Sterling Height, Mich.). EC, CD45, CD68 and PECAM staining through the entire plane of the transverse sections was digitized using a 5× objective and the area occupied by the staining calculated for the three sections per rostro-caudal level by using the threshold feature of Scion Image software (Scion Corporation, Frederick, Md.). […] The area of LEA was determined with Scion Image. To provide a measure of the number of blood vessels, the number of LEA-positive vessels intersecting 100 μm spaced horizontal (5) and vertical (6) lines were counted in each image. […] The software calculated the volume based on the section interval and the area per section and this was expressed as a percentage of the total 10 mm segment. […]

Data set [5] has the same test system. The data set is described as follows: Blood vessel permeability: luciferase extravasated into the spinal cord at the injury site. Format: in vivo. As to the method: Increased permeability contributes to tissue loss following SCI and was measured here by the amount of luciferase that extravasated into the spinal cord at the injury site after i.v. injection 20 minutes before analysis.

Data set [6] is described as follows: Blood cell counts after 7 days of treatment. The arrangement: key to Leukocytes eosinophils / Leukocytes basophils / Erythrocytes / Leukocytes total / Leukocytes neutrophils / Leukocytes lymphocytes / Leukocytes monocytes: N = within the normal range. The settings on record: daily C16 for 7 days after T9 contusion; individual mice A, B. Format: in vivo, mice. As to the method:
(§1) To determine potential effects of C16 on the number of peripheral leukocytes, 1 ml blood was drawn from the heart just before perfusion-fixation in mice that had been treated with vehicle (n=3) or C16 (n=2) for 7 days treated. The blood was collected in EDTA-coated tubes and blood counts were performed by Drew Scientific Inc. (Oxford, Conn.).
(§2) To determine potential effects of C16 on the number of peripheral leukocytes, 1 ml blood was drawn from the heart just before perfusion-fixation in mice that had been treated with vehicle or C16 for 7 days. The blood was collected in EDTA-coated tubes and blood counts were performed by Drew Scientific Inc. (Oxford, Conn.).

Data set [7] relates to peripheral leukocytes. The data set is described as follows: Blood cell counts after 7 days of treatment. Format: in vivo, mice. Also noted: key to Leukocytes eosinophils / Leukocytes basophils / Erythrocytes / Leukocytes total / Leukocytes neutrophils / Leukocytes lymphocytes / Leukocytes monocytes: N = within the normal range. The method, then:
as §1, §2

The subject of data set [8] is monocytic THP-1 cells across human aortic endothelial cells. The data set is described as follows: Transendothelial migration assay. Type of data set: cell-based. The settings on record: SP3 600 μM; absence or presence of TNFα. As to the method:
Human aortic endothelial cells (Lonza, Wakersville, Md.) were plated on permeable filters in Transwell® culture plates (Costar, Cambridge, Mass.) at 4×10^4 cells per well. They were grown for 72-96 hours to reach confluency at 37° C. in Dulbecco's modified Eagle's medium Ham's F-12 (DMEM F-12; BioWhittaker, Walkersville, Md.) plus EGM-2 growth factor supplements (EGM-2 SingleQuots™ from Lonza Walkersville Inc, containing hydrocortisone, hEGF, FBS, VEGF, hFGF-B, R3-IGF-1, ascorbic acid, heparin and gentamicin/amphotericin-B) and 10-20% fetal calf serum. Afterwards, the inner chamber of the Transwell® system was loaded with 2×10^5 monocytic THP-1 cells (American Type Culture Collection, Manassas, Va.) and preincubated in medium with or without 15 ng/ml of TNF-α (PeproTech, Rocky Hill, N.J.) for 5 hr at 37° C. C16 peptide was added into the medium of the inner chamber at 25, 50, 100, 200, 400, 600 μM, and SP3 was added at 600 μM. […] The monocytic THP-1 cells were allowed to transmigrate for 6 h at 37° C. and the number of THP-1 cells that crossed endothelial cell layer was counted. […]
Human aortic ECs (BioWhittaker, Walkersville, Md.) were plated on permeable filters in Transwell culture plates (Costar, Cambridge, Mass.) at 4×10^4 cells per well. […] THP-1 cells were allowed to transmigrate for 6 h at 37° C. and the number of THP-1 cells that crossed EC layer was counted. […]

The target of data set [9] is human αvβ3 integrin (human) (UniProt P06756). Put plainly: cell-based or functional assay.
Setting [10] is: daily C16 for 7 days after T9 contusion, individual mice A, B.

Sequence of human αvβ3 integrin (human) (P06756 31-1048, chain 1 of 2): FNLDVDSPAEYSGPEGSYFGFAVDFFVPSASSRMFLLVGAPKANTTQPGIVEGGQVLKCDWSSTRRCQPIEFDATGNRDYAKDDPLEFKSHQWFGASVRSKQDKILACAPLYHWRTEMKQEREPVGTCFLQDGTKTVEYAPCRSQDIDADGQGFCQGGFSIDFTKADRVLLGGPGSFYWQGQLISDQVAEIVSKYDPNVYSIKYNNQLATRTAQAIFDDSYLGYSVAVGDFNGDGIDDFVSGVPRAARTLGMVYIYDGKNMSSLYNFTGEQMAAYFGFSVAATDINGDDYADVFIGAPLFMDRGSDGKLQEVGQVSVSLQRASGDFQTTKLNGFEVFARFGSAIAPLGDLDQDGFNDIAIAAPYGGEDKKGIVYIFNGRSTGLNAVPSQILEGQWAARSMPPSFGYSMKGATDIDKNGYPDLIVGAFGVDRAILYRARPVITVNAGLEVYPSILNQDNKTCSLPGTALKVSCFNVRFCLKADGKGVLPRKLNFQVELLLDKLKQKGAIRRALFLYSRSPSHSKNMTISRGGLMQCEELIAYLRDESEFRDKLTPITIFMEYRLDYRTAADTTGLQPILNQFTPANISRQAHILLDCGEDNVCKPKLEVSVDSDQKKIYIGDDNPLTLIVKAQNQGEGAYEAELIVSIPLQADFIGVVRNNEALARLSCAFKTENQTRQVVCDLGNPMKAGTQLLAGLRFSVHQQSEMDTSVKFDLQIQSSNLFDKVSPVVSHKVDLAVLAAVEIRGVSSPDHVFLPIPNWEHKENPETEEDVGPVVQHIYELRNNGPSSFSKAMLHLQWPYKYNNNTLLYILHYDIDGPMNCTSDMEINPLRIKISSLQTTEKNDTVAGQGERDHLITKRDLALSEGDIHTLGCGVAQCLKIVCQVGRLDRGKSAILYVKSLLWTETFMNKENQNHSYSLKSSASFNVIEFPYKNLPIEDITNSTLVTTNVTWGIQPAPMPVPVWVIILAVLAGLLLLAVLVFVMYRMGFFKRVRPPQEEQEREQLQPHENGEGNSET
Sequence of human αvβ3 integrin (human) (P05106 27-788, chain 2 of 2, further chain): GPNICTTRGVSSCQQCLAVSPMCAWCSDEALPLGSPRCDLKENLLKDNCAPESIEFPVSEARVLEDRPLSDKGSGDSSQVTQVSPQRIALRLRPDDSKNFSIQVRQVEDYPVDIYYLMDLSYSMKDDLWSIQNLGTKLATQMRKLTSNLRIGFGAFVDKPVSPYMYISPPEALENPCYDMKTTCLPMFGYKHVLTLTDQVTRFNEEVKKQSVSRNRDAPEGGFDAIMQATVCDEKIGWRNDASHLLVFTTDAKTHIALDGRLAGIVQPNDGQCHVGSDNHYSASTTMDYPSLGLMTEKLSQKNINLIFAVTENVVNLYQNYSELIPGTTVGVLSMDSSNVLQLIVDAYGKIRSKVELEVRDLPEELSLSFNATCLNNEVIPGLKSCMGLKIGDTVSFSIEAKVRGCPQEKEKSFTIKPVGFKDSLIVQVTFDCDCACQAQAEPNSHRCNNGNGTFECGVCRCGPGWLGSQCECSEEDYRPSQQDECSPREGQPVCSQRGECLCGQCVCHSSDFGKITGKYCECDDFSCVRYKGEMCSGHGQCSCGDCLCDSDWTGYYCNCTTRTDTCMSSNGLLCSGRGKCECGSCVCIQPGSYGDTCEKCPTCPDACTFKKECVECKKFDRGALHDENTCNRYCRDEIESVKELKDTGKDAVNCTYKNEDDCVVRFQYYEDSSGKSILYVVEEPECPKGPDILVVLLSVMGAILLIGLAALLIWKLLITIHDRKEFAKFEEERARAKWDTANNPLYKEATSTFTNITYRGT

In the case of “Angiopoietin-1 tetra-fibrinogen-like domain [Ang-1]”, the “cross-sectional area of white matter at the epicenter compared with vehicle” value in [1] (7 and 42 day post-injury times) was “greater”. In addition, in data set [2] (100 μg/day i.v. for 7 days starting 4 hours after injury, behavioral analyses over 6 weeks), the “BMS score (9 point scale)” value came out at 5.5. In addition, the “mice with a BMS score of 7 or above” value in data set [2] (i.v. for 7 days, at 43 days) is recorded as 4/14. The “mice with a BMS score of 7 and above” value in data set [2] (last two weeks of testing (5 and 6 weeks after injury)) amounted to 28%. Also, in data set [3], the “number of LEA-positive blood vessels in the penumbra, of sham” value amounted to 40%. Besides, the “smaller area of CD68 staining than vehicle treated mice” value in [4] (24 hours, 3 mm rostral to 3 mm caudal from the epicenter) was about 25%. The “inflammation (CD45, CD68 area) compared with vehicle” value in [4] (all post-injury times, 3 mm rostral to 3 mm caudal from the epicenter) is recorded as “reduced inflammation”. In addition, the “luciferase values versus vehicle” value in data set [5] (24 hours following SCI) is “not different”. Moreover, in [5] (72 hours following SCI), the “luciferase values, of vehicle” value worked out at 55±13%.

Turning to “KAFDITYVRLKF [C16, KAFDITYVRLKF (SEQ ID NO:2)]”, the Erythrocytes entry in data set [6] is “N”. In data set [7] (setting [10]), the Leukocytes basophils result is recorded as “N”, the Leukocytes eosinophils result is “N”, the Leukocytes lymphocytes result is recorded as “N” and the Leukocytes monocytes result is “N”. Further, in data set [7] (setting [10]), the Leukocytes neutrophils result was “N”, the Leukocytes total entry is on record as “N” and the Thrombocytes entry is reported as “low”. For the same substance, in data set [7] (treated for 7 days), the white cell counts result is given as “within normal range”.

On to “RFSVAVSSHYPFWSR (SEQ ID NO:3) [SP3, reference compound]”, for which the “white matter cross-sectional area at the injury epicenter, percent of sham-operated mice” value in [1] (100 μg/day i.v. daily for 7 days, 7 days after contusion) stood at 30±5%. In addition, in data set [2] (100 μg/day i.v. daily for 7 days, 7 days following injury), the BMS score is given as 0.7±0.3. In data set [4] (control peptide 100 μg/day, at 7 days), the “effect on the inflammatory response” value is reported as “no significant effect”. Moreover, the “effect on monocyte transmigration” value in data set [8] was “no significant effect”.

As for “azide-free blocking antibody against human αvβ3 (Cat# MAB1976Z, Chemicon; also known as LM609)”, in [9], the monocyte (THP-1) transmigration across an endothelial cell layer, blocking antibody, with TNFα, without C16 turned out to be 64% and the monocyte transmigration across an EC layer, reduction by blocking antibody is 36%.
